Several values for one entry are separate records, joined by “and”; a condition that tells them apart may be missing. Equal entries are not always repeated.
System: K12877-001-R-J1-PDC complex spheroid viability
Assay: Anticancer human tumor K12877-001-R-J1-PDC patient-derived lung adenocarcinoma cell line growth inhibition [RAS]
Details: for viability, T/C: stronger effect = lower value
Outline: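 Agents were tested in combination matrices in half-log decrements from a top concentration at or near clinical Cmax (10 microM if undetermined). Targets were multi-cell spheroids of tumour lines plus HUVEC and MSC stromal cells.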
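Further: spheroids exposed to agents for one week before readout.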
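Wherever viability, T/C is given: tumour cells co-cultured with HUVEC and mesenchymal stem cells in spheroids.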

`Nc1ccn(C2OC(CO)C(O)C2(F)F)c(=O)n1` (stereo not given) + C=CC(=O)N1CCN(c2nc(OCC3CCCN3C)nc3c(F)c(-c4nc(N)cc(C)c4C(F)(F)F)c(Cl)cc23)C(C)C1 showed an IC50 (curve of first compound, second compound 0.00316 µM) of 17.9 nM, an IC50 (curve of first compound, second compound 0.01 µM) of 16.9 nM and an IC50 (curve of first compound, second compound 0.0316 µM) of 16.1 nM. The IC50 (curve of first compound, second compound 0.1 µM) was 16.6 nM, the IC50 (curve of first compound, second compound 0.316 µM) was 14.4 nM and the IC50 (curve of first compound, second compound 1 µM) was 13.1 nM. The viability, T/C (second compound 0.00316 µM, first compound 0.00316 µM) was 95.9%, the viability, T/C (second compound 0.00316 µM, first compound 0.01 µM) was 94.4% and the viability, T/C (second compound 0.00316 µM, first compound 0.0316 µM) was 6.55%. It also gave a viability, T/C (second compound 0.00316 µM, first compound 0.1 µM) of 4.24%, a viability, T/C (second compound 0.00316 µM, first compound 0.316 µM) of 4.05% and a viability, T/C (second compound 0.00316 µM, first compound 1 µM) of 3.99%. For the same compound, the viability, T/C (second compound 0.01 µM, first compound 0.00316 µM) was 93.7%, the viability, T/C (second compound 0.01 µM, first compound 0.01 µM) was 83% and the viability, T/C (second compound 0.01 µM, first compound 0.0316 µM) was 10.8%. It also gave a viability, T/C (second compound 0.01 µM, first compound 0.1 µM) of 4.22%, a viability, T/C (second compound 0.01 µM, first compound 0.316 µM) of 4.2% and a viability, T/C (second compound 0.01 µM, first compound 1 µM) of 4.01%. For the same compound, the viability, T/C (second compound 0.0316 µM, first compound 0.00316 µM) was 83.5%, the viability, T/C (second compound 0.0316 µM, first compound 0.01 µM) was 81.2% and the viability, T/C (second compound 0.0316 µM, first compound 0.0316 µM) was 6.08%. For the same compound, the viability, T/C (second compound 0.0316 µM, first compound 0.1 µM) was 3.45%, the viability, T/C (second compound 0.0316 µM, first compound 0.316 µM) was 5.01% and the viability, T/C (second compound 0.0316 µM, first compound 1 µM) was 4.23%. For the same compound, the viability, T/C (second compound 0.1 µM, first compound 0.00316 µM) was 87.8%, the viability, T/C (second compound 0.1 µM, first compound 0.01 µM) was 84.7% and the viability, T/C (second compound 0.1 µM, first compound 0.0316 µM) was 6.15%. The viability, T/C (second compound 0.1 µM, first compound 0.1 µM) was 4.69%, the viability, T/C (second compound 0.1 µM, first compound 0.316 µM) was 4.71% and the viability, T/C (second compound 0.1 µM, first compound 1 µM) was 3.18%. The viability, T/C (second compound 0.316 µM, first compound 0.00316 µM) was 84.9%, the viability, T/C (second compound 0.316 µM, first compound 0.01 µM) was 70.4% and the viability, T/C (second compound 0.316 µM, first compound 0.0316 µM) was 6.26%. For the same compound, the viability, T/C (second compound 0.316 µM, first compound 0.1 µM) was 4.95%, the viability, T/C (second compound 0.316 µM, first compound 0.316 µM) was 4.16% and the viability, T/C (second compound 0.316 µM, first compound 1 µM) was 4.03%. The viability, T/C (second compound 1 µM, first compound 0.00316 µM) was 83.5%, the viability, T/C (second compound 1 µM, first compound 0.01 µM) was 63.4% and the viability, T/C (second compound 1 µM, first compound 0.0316 µM) was 6.51%. The viability, T/C (second compound 1 µM, first compound 0.1 µM) was 3.92%, the viability, T/C (second compound 1 µM, first compound 0.316 µM) was 4.72% and the viability, T/C (second compound 1 µM, first compound 1 µM) was 5.35%.

In the case of `Nc1ccn(C2OC(CO)C(O)C2(F)F)c(=O)n1` (stereo not given) + CCn1c(-c2cc(N3CCN(C)CC3)cnc2C(C)OC)c2c3cc(ccc31)-c1csc(n1)CC(NC(=O)C1CC1C)C(=O)N1CCCC(N1)C(=O)OCC(C)(C)C2, the IC50 (curve of first compound, second compound 0.000949 µM) is reported as 13.9 nM, the IC50 (curve of first compound, second compound 0.003 µM) is reported as 13.4 nM and the IC50 (curve of first compound, second compound 0.00949 µM) is reported as 11.6 nM. For the same compound, the IC50 (curve of first compound, second compound 0.03 µM) was 17.5 nM, the IC50 (curve of first compound, second compound 0.0949 µM) was 16.8 nM and the IC50 (curve of first compound, second compound 0.3 µM) was 17.4 nM. It also gave a viability, T/C (second compound 0.000949 µM, first compound 0.00316 µM) of 76.3%, a viability, T/C (second compound 0.000949 µM, first compound 0.01 µM) of 66.7% and a viability, T/C (second compound 0.000949 µM, first compound 0.0316 µM) of 8.22%. For the same compound, the viability, T/C (second compound 0.000949 µM, first compound 0.1 µM) was 4.35%, the viability, T/C (second compound 0.000949 µM, first compound 0.316 µM) was 4.92% and the viability, T/C (second compound 0.000949 µM, first compound 1 µM) was 5.37%. The viability, T/C (second compound 0.003 µM, first compound 0.00316 µM) was 62.2%, the viability, T/C (second compound 0.003 µM, first compound 0.01 µM) was 64% and the viability, T/C (second compound 0.003 µM, first compound 0.0316 µM) was 10.9%. The viability, T/C (second compound 0.003 µM, first compound 0.1 µM) was 4.55%, the viability, T/C (second compound 0.003 µM, first compound 0.316 µM) was 4.11% and the viability, T/C (second compound 0.003 µM, first compound 1 µM) was 4.17%. It also gave a viability, T/C (second compound 0.00949 µM, first compound 0.00316 µM) of 59.7%, a viability, T/C (second compound 0.00949 µM, first compound 0.01 µM) of 55.8% and a viability, T/C (second compound 0.00949 µM, first compound 0.0316 µM) of 9.86%. It also gave a viability, T/C (second compound 0.00949 µM, first compound 0.1 µM) of 3.95%, a viability, T/C (second compound 0.00949 µM, first compound 0.316 µM) of 4.84% and a viability, T/C (second compound 0.00949 µM, first compound 1 µM) of 4.74%. For the same compound, the viability, T/C (second compound 0.03 µM, first compound 0.00316 µM) was 93.2%, the viability, T/C (second compound 0.03 µM, first compound 0.01 µM) was 86.8% and the viability, T/C (second compound 0.03 µM, first compound 0.0316 µM) was 10.9%. It also gave a viability, T/C (second compound 0.03 µM, first compound 0.1 µM) of 4.44%, a viability, T/C (second compound 0.03 µM, first compound 0.316 µM) of 4.77% and a viability, T/C (second compound 0.03 µM, first compound 1 µM) of 3.54%. The viability, T/C (second compound 0.0949 µM, first compound 0.00316 µM) was 103%, the viability, T/C (second compound 0.0949 µM, first compound 0.01 µM) was 80.9% and the viability, T/C (second compound 0.0949 µM, first compound 0.0316 µM) was 12.4%. For the same compound, the viability, T/C (second compound 0.0949 µM, first compound 0.1 µM) was 3.68%, the viability, T/C (second compound 0.0949 µM, first compound 0.316 µM) was 3.46% and the viability, T/C (second compound 0.0949 µM, first compound 1 µM) was 4.36%. For the same compound, the viability, T/C (second compound 0.3 µM, first compound 0.00316 µM) was 84.6%, the viability, T/C (second compound 0.3 µM, first compound 0.01 µM) was 80.6% and the viability, T/C (second compound 0.3 µM, first compound 0.0316 µM) was 17%. It also gave a viability, T/C (second compound 0.3 µM, first compound 0.1 µM) of 2.67%, a viability, T/C (second compound 0.3 µM, first compound 0.316 µM) of 3.61% and a viability, T/C (second compound 0.3 µM, first compound 1 µM) of 2.74%.

In the case of `O=C(c1ccc(F)c(F)c1Nc1ccc(I)cc1F)N1CC(O)([C@@H]2CCCCN2)C1`, the viability, T/C (compound 0.00316 µM) is reported as 109% [middle of 4 runs], the viability, T/C (compound 0.01 µM) is reported as 93.5% [middle of 4 runs] and the viability, T/C (compound 0.0316 µM) is reported as 94.9% [middle of 4 runs]. For the same compound, the viability, T/C (compound 0.1 µM) was 81.3% [middle of 4 runs], the viability, T/C (compound 0.316 µM) was 81.6% [middle of 4 runs] and the IC50 (curve of compound) was > 1000 nM and 496 nM.

From PubChem BioAssay AID2060894 (Molecular Pharmacology Branch, DTP, NCI, 2025)
